Data from patent publication US20260159534A1, “NOVEL CRYSTAL FORMS OF PEPTIDE BORIC ACID COMPOUND AND PREPARATION METHODS THEREFOR” (JIANGSU CHUANGTE PHARMACEUTICAL TECHNOLOGY CO., LTD., priority 2021, published 2026).
Values after ≈ are worked out from the molar mass of the structure shown.

Experiments:
Assay type in all cases: physicochemical
[1] = Solubility test in ultra-pure water; conditions: for Solubility property (in words): solubility and kinetic solubility; for Solubility: upper limit 300 μg/mL
Text: (§1) Four crystal samples produced, namely the eutectic sample and the crystal form A sample of Example 1, the crystal form B sample of Example 2, and the crystal form D sample of Example 3, were subjected to solubility tests and a kinetic solubility determination tests in ultra-pure water, and the solubility results are shown in Tables 1 and 2.

[2] = Stability influence factor tests (high temperature, high humidity, illumination); conditions: for Stability during the 10 days of examination (in words): high temperature, high humidity, illumination
Description: Four crystal samples produced, namely the eutectic sample and the crystal form A sample of Example 1, the crystal form B sample of Example 2, and the crystal form D sample of Example 3, were each subjected the stability influence factor tests under high temperature (60° C., in the dark), high humidity (relative humidity of 90%[…], in the dark), and illumination (4500 lx±500 lx), and sampling was carried out to on day 0, day 5 day, and day 10 for […] determination, and the results are shown in Table 4 below.

[3] = Kinetic solubility determination in ultra-pure water; conditions: upper limit 1000 μg/mL
Text: as §1

[4] = Hygroscopicity test (dynamic vapor sorption); conditions: 25° C.; for Hygroscopicity / Hygroscopicity comparison (in words): 0-80% RH; for Weight change in the range of 0% RH to 80% RH: dynamic vapor sorption
Description: Four crystal samples produced, namely the eutectic sample and the crystal form A sample of Example 1, the crystal form B sample of Example 2, and the crystal form D sample of Example 3, were subjected to hygroscopicity tests at 25° C. under a changing relative humidity of 0-80% RH.

[5] = 5 d, high humidity (relative humidity of 90%±50, in the dark)
[6] = 5 d, high temperature (60° C., in the dark)
[7] = 5 d, illumination (4500 lx±500 lx)
[8] = 10 d, high humidity (relative humidity of 90%±50, in the dark)
[9] = 10 d, high temperature (60° C., in the dark)
[10] = 10 d, illumination (4500 lx±500 lx)

Compound	Solubility property (in words) [1]	Solubility [1] [µg/mL]	Stability results (content) ([2]; 0 h) [%]	Stability results (content) [2, 5] [%]	Stability results (content) [2, 6] [%]	Stability results (content) [2, 7] [%]	Stability results (content) [2, 8] [%]	Stability results (content) [2, 9] [%]	Stability results (content) [2, 10] [%]	Stability during the 10 days of examination (in words) [2]	Kinetic solubility [3] [µg/mL]	Hygroscopicity [4]	Weight change in the range of 0% RH to 80% RH [4]	Hygroscopicity comparison (in words) [4]
CSC[C@H](NC(=O)c1cc(Cl)ccc1Cl)C(=O)N[C@@H](CC(C)C)B1OCCNCCO1 [Crystal form D of Example 3, N—((R)-1-(((R)-1-(1,3,6,2-dioxazaborolan-2-yl)-3-methylbutyl)amino)-3-(methylthio)-1-oxoprop-2-yl)-2,5-dichlorobenzamide]	excellent solubility property	304.21 (≈ 621 µM)	98.05	97.88	97.68	98.07	98.39	98.52	98.49	no significant content change	902.91	Deliquescent	2.4%	–
N—((R)-1-(((R)-1-(1,3,6,2-dioxazaborolan-2-yl)-3-methylbutyl)amino)-3-(methylthio)-1-oxoprop-2-yl)-2,5-dichlorobenzamide [White eutectic solid of Example 1]	excellent solubility property	310.12	98.10	–	–	–	93.18	97.49	98.06	unstable	948.16	Deliquescent	2.1%	–
CSC[C@H](NC(=O)c1cc(Cl)ccc1Cl)C(=O)N[C@@H](CC(C)C)B1OCCNCCO1 [Crystal form B of Example 2, N—((R)-1-(((R)-1-(1,3,6,2-dioxazaborolan-2-yl)-3-methylbutyl)amino)-3-(methylthio)-1-oxoprop-2-yl)-2,5-dichlorobenzamide]	excellent solubility property	302.80 (≈ 618 µM)	99.16	98.41	98.92	99.22	99.08	99.25	99.11	no significant content change	1078.59	Nonhygroscopic	Less than 0.2%	weaker hygroscopicity compared with the crystal form D
CSC[C@H](NC(=O)c1cc(Cl)ccc1Cl)C(=O)N[C@@H](CC(C)C)B1OCCNCCO1 [Crystal form A of Example 1, N—((R)-1-(((R)-1-(1,3,6,2-dioxazaborolan-2-yl)-3-methylbutyl)amino)-3-(methylthio)-1-oxoprop-2-yl)-2,5-dichlorobenzamide]	excellent solubility property	318.09 (≈ 649 µM)	99.01	99.24	98.97	98.61	99.23	99.22	98.90	no significant content change	958.47	–	1.4%	weaker hygroscopicity compared with the crystal form D
